Assay results taken from patent publication US20240115649A1, “CASPASE INHIBITION TO ENHANCE REGENERATION AND REPAIR AFTER SKIN OR GUT INJURY AND TO TREAT BACTERIAL OR VIRAL INFECTIONS” (The Johns Hopkins University, priority 2020, published 2024).

How the values were obtained:
[1] = tested on: neutrophils; assay: Flow cytometry of skin of Q-VD-OPh-treated mice; assay type: in vivo; details: Q-VD-OPh i.p.; unwounded skin; vs vehicle controls
Description: Flow Cytometry. Cell suspensions were prepared by digesting mouse skin tissue in a cocktail consisting of Liberase TL (Roche, 5401020001), DNase I (Sigma, DN25) and antibiotics (Invitrogen, 15140) in RPMI 1640 (Gibco, 11875093). For FACS, cells were washed and first viability stained using the Zombie Aqua dye (BioLegend, 423101). […] Finally, cells were resuspended in BD stabilizing fixative prior to FACS. All flow cytometry experiments were performed on a BD LSR II and downstream analysis of data was performed using Cytobank.

[2] = tested on: monocytes, macrophages and neutrophils isolated from the infected skin; assay: Flow cytometry of single-cell suspensions from CA-MRSA-infected skin; assay type: in vivo, mice
Description: Flow cytometry. 10-mm skin punch biopsies were collected, minced and enzymatically digested in 3 mL RPMI containing 100 μg/mL DNaseI (Sigma-Aldrich) and 1.67 Wunsch U/ml Liberase TL (Roche) for 1 hour at 37° C. and shaken at 140 rpm. Single-cell suspensions were obtained after filtering the digested samples through a 40-μm cell filter using a 3 mL syringe plunger and cells were then washed in RPMI. […] The cells were further labeled for intracellular pMLKL, which was detected via anti-pMLKL mAb that was biotinylated with Biotin conjugation/Fast/Type A kit (Abcam), as per manufacturer's instructions, along with other intracellular mAbs against IL-1β and TNF (Supplemental Table S1). […] For immunophenotyping of Langerhans cells and monocyte-derived dendritic cells (DCs), cells were first gated on CD45^+ and then CD207^+CD103^− (Langerhans cells) and CD45^+CD11c^+CD115^+ monocyte-derived DCs (FIG. 11), modified from previously described methods (61). The absolute numbers of the respective cell populations were calculated as (Total number of live cells X [% of cell population/100]).

[3] = tested on: DSS treated C57BL/J6 mice; assay: DSS-induced colitis model; assay type: in vivo
From the text: Histology. Biopsies from mouse colon and skin tissue were removed and fixed in 4% paraformaldehyde overnight and then transferred to 70% ethanol. Samples were then submitted to the Johns Hopkins Oncology Tissue Services Core facility where they were embedded in paraffin. Tissue sections were obtained at 4pin thickness and mounted onto glass slides, followed by hematoxylin and eosin (H&E) staining.
Colitis Model. In order to induce colitis, adult wild-type, Rnasel -A , and Il36r^−/− mice were fed up to 4% (w/v) 36-50 kDa dextran sodium sulfate (DSS) (MP Biomedicals, 160110) in sterile water^37. Weight changes were monitored and recorded every day. For rescue experiments using the pan-caspase inhibitor Q-VD-OPh, mice were treated at the same concentrations as in WIHN experiments and were injected intraperitoneally during the day when noticeable weight loss began to occur (˜day 3-4). Mice were eventually sacrificed and colon lengths were extracted for gross examination and downstream FACS and protein analysis.

[4] = Q-VD-OPH treated TNF^−/− mice, day 1
[5] = Q-VD-OPH treated WT mice, day 1
[6] = TNF^−/− mice, day 1, vs untreated
[7] = WT mice, infected skin day 1, vs untreated

Compound: CC(C)[C@H](NC(=O)c1ccc2ccccc2n1)C(=O)N[C@@H](CC(=O)O)C(=O)COc1c(F)cccc1F [Q-VD-OPH, Quinoline-val-asp-difluorophenoxymethyl ketone]
- neutrophil levels in the skin [1]: higher neutrophil levels in the skin
- pMLKL+ MFI [2, 4]: 540
- pMLKL+ total cells, absolute numbers [2, 4]: 1.5×10^4 cells
- pMLKL+ total cells, percentage [2, 4]: 15%
- pMLKL+ MFI [2, 5]: 2250
- pMLKL+ total cells, absolute numbers [2, 5]: 1.0×10^5 cells
- pMLKL+ total cells, percentage [2, 5]: 81%
- percentages and absolute number of macrophages ([2]; TNF^−/− mice, day 1): statistically increased
- percentages and absolute number of monocytes ([2]; TNF^−/− mice, day 1, compared with Q-VD-OPH treated WT mice): no increase
- necroptosis (pMLKL+) total leukocytes: MFI, percentages and absolute numbers ([2]; TNF^−/− mice, day 1, vs TNF^−/− untreated): significantly greater
- early apoptotic (Annexin V+) neutrophils [2, 6]: significantly decreased
- early apoptotic cells (Annexin V+) of total leukocytes [2, 6]: significantly decreased
- percentages and absolute number of neutrophils ([2]; TNF^−/− mice, infected skin day 1, vs untreated or Q-VD-OPH treated WT mice): significantly reduced
- intracellular pro-IL-1β: MFI and percentages of total leukocytes (CD45+pro-IL-1β+) ([2]; WT mice, day 1, especially macrophages and neutrophils but not monocytes): increased mean fluorescence intensity (MFI) and percentages of total leukocytes
- TNF+ macrophages ([2]; WT mice, day 1, vs untreated): significantly greater
- TNF+ monocytes ([2]; WT mice, day 1, vs untreated): significantly greater
- TNF+ neutrophils ([2]; WT mice, day 1, vs untreated): significantly greater
- TNF+ total leukocytes (CD45+TNF+): MFI, percentages and absolute number ([2]; WT mice, day 1, vs untreated): significantly greater
- early apoptotic (Annexin V+) monocytes, percentages and absolute numbers ([2]; WT mice, day 1, vs untreated): significantly decreased
- early apoptotic (Annexin V+) neutrophils, percentages and absolute numbers ([2]; WT mice, day 1, vs untreated): significantly decreased
- early apoptotic cells (Annexin V+) of total leukocytes, percentages and absolute numbers ([2]; WT mice, day 1, vs untreated): significantly decreased
- necroptosis (pMLKL+) macrophages ([2]; WT mice, day 1, vs untreated): significantly greater
- necroptosis (pMLKL+) total leukocytes: MFI, percentages and absolute numbers ([2]; WT mice, day 1, vs untreated): significantly greater
- percentages and absolute numbers of neutrophils [2, 7]: no differences
- percentages of macrophages [2, 7]: statistically increased
- percentages of monocytes [2, 7]: statistically increased
- gut shortening after DSS treatment ([3]; Il36r^−/− mice): does not rescue gut shortening
- weight loss ([3]; Il36r^−/− mice, DSS): does not rescue weight loss
- IL-36α expression in the gut ([3]; WT mice): Increased IL-36α expression
- neutrophil abundance in the blood or the gut ([3]; regenerative phase following cessation of DSS, vs controls): no change in neutrophil abundance
- DSS-induced weight loss ([3]; wild-type mice, 4% DSS, Q-VD-OPh i.p. 1.33 mM, vs control): protected from DSS-induced weight loss
- colon length and morphology ([3]; wild-type mice, 4% DSS, Q-VD-OPh i.p., vs control): longer and better colon morphology
